# According to ChEMBL document CHEMBL1201862, “PubChem BioAssay data set” (2004):
# Active and inactive are the calls of the source.
# Experiments:
# Cytochrome P450 1A2 = biological target: T1, Cytochrome P450 1A2 (Homo sapiens, UniProt P05177);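 note: PubChem cytochrome P450 panel assay, CYP1A2 panel member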
# T1 sequence (P05177 whole entry): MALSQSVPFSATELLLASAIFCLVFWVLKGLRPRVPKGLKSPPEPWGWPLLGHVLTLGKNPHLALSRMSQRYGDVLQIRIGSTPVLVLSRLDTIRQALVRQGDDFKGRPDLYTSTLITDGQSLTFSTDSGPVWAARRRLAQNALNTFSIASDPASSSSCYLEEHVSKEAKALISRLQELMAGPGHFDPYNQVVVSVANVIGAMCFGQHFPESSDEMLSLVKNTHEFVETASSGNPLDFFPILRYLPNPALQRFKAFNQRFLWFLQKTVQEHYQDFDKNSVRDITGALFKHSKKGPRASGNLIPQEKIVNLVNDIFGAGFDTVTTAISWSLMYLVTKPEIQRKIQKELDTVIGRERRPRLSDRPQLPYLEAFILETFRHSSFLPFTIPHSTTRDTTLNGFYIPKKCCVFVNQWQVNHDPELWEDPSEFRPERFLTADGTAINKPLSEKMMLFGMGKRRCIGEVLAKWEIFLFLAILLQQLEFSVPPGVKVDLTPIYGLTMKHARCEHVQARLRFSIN
# Cytochrome P450 2D6 = Cytochrome P450 2D6 (Homo sapiens, UniProt P10635);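 note: CYP2D6 member of a cytochrome P450 panel assay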
# Cytochrome P450 2C9 = Cytochrome P450 2C9 (Homo sapiens, UniProt P11712)
# [1] = biological target: T2, Heat shock factor protein 1 (Mus musculus, UniProt P38532); experiment: decrease of HSF1-responsive luciferase luminescence – cell-based, NIH3T3, dose retest, confirmation (AID 2382); format: functional;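 note: NIH3T3 fibroblasts with HSF1-driven luciferase reporter stressed by proteasome inhibitor MG132; luminescence from HSF1-driven luciferase expression after 8 hours of MG132 stress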
# T2 sequence (P38532 whole entry): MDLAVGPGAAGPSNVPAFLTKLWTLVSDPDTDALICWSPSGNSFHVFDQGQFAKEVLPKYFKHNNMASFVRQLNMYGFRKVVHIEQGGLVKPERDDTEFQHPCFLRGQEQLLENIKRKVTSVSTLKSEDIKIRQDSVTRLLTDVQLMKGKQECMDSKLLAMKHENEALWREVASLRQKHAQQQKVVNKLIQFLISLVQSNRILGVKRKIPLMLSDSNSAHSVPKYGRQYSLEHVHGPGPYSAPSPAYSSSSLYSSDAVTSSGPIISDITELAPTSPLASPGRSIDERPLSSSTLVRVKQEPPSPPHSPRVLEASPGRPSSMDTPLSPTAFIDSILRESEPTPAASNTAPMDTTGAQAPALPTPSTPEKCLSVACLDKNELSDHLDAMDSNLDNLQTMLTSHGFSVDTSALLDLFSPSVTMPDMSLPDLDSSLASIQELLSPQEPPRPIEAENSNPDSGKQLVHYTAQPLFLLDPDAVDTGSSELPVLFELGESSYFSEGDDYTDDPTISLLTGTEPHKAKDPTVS
# [2] = biological target: T3, Rac GTPase-activating protein 1 (Homo sapiens, UniProt Q9H0H5); experiment: blockers of MgcRacGAP-driven Rac1 GTP hydrolysis – biochemical, ADP Hunter fluorescence, primary and confirmatory, confirmation (AID 624330); format: functional
# T3 sequence (Q9H0H5 whole entry): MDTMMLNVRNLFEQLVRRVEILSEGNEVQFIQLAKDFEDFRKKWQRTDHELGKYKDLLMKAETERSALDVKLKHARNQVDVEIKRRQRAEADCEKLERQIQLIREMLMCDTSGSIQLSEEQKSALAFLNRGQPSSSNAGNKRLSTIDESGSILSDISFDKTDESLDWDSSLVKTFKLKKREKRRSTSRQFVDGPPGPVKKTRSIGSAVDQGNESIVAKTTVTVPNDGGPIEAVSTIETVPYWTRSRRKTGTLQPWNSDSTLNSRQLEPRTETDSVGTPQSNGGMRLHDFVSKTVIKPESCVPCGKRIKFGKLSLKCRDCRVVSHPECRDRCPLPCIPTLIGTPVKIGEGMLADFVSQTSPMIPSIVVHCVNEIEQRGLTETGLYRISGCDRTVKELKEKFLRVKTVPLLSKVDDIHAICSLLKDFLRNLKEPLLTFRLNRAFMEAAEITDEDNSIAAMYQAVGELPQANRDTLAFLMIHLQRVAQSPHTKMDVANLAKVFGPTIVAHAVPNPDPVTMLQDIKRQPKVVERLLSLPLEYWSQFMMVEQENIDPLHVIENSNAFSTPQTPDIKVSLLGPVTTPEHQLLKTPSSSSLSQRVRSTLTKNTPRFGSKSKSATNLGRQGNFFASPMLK
# [3] = NIH-3T3 fibroblast cytotoxicity, dose response, cytotoxicity control, cell-based, fluorescence, Alamar Blue, secondary assay (AID 2327); format: functional;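 note: NIH-3T3 mouse fibroblasts cultured with fluconazole at 8 µg/mL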
# [4] = Trypanosoma cruzi growth suppression in host cells – NIH3T3 host cells, beta-gal luminescence, confirmation (AID 2044); format: functional, cell-based;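 note: intracellular parasites grown in NIH/3T3 mouse fibroblasts as host cells; luminescent beta-galactosidase reporter signal from transgenic T. cruzi replicating inside host cells; inhibitors lower the luminescence signal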
# [5] = NIH3T3 cell viability loss – ATP luminescence, mouse fibroblasts, counter-screen, dose response (AID 2010); format: functional, cell-based;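 note: cells exposed to compound for about 90 hours before reading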
# cells = format: functional
# Cytochrome P450 3A4 = Cytochrome P450 3A4 (Homo sapiens, UniProt P08684);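 note: CYP3A4 tested as one member of a cytochrome P450 panel screen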
# [6] = Luminescence Cell-Based Dose Retest to Confirm Inhibitors of Cancer Stem Cells. [Related pubchem assays (depositor defined):AID2717, AID2721]; format: functional; conditions: Homo sapiens
# INS1 = experiment: INS-1E survival protection against cytokine death – cell-based, luminescence, retest, dose response (AID 449756); format: functional; conditions: Rattus norvegicus;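 note: cell death triggered by IL-1 beta plus TNF-alpha plus IFN-gamma mixture; protective hits raise ATP signal compared with cytokine alone wells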
# Cytochrome P450 2C19 = Cytochrome P450 2C19 (Homo sapiens, UniProt P33261); experiment: Cytochrome panel assay with activity outcomes. Panel member name: p450-cyp2c19 Compounds with AC50 equal or less than 10 uM are considered active; format: functional; conditions: read-out: AC50
# Sequence of Cytochrome P450 2C19 (P33261 whole entry): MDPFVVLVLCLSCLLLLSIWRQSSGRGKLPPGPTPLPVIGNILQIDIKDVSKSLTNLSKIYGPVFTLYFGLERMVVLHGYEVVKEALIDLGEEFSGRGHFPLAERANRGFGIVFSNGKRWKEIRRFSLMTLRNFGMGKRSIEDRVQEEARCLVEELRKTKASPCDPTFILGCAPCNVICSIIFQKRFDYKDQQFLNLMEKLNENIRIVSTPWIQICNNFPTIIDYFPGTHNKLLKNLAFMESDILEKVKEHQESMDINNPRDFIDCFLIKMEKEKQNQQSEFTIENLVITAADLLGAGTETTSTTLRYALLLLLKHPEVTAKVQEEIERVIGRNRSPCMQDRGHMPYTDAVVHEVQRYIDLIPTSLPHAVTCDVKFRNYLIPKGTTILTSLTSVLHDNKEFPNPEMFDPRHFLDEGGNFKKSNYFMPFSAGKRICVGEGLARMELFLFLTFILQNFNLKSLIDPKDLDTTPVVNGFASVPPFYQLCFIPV
# Sequence of Cytochrome P450 2C9 (P11712 whole entry): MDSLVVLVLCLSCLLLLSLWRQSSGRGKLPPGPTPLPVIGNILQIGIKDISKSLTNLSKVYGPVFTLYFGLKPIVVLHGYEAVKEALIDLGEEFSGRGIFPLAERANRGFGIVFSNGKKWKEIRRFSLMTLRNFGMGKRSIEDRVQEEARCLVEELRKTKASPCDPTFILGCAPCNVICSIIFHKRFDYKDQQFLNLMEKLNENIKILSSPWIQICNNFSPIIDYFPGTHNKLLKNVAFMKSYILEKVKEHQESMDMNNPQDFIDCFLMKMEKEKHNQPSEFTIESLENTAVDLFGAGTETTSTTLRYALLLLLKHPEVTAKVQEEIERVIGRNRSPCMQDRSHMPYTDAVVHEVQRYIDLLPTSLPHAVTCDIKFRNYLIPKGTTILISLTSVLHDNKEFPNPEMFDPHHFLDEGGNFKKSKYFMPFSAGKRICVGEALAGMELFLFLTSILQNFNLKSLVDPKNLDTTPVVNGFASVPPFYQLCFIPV
# Sequence of Cytochrome P450 3A4 (P08684 whole entry): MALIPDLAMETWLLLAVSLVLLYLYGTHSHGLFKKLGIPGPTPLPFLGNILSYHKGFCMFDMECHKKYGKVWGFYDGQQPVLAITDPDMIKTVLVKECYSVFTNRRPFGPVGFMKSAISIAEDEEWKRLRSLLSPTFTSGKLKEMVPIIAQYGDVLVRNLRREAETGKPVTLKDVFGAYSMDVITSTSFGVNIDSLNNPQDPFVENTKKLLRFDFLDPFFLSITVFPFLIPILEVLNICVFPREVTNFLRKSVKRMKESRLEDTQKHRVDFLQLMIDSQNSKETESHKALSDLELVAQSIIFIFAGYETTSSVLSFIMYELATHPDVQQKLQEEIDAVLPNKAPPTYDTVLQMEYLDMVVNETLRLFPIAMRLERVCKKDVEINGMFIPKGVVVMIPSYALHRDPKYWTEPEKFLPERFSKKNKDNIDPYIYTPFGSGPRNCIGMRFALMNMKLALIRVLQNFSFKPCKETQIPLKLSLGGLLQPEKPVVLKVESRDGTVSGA
# Sequence of Cytochrome P450 2D6 (P10635 whole entry): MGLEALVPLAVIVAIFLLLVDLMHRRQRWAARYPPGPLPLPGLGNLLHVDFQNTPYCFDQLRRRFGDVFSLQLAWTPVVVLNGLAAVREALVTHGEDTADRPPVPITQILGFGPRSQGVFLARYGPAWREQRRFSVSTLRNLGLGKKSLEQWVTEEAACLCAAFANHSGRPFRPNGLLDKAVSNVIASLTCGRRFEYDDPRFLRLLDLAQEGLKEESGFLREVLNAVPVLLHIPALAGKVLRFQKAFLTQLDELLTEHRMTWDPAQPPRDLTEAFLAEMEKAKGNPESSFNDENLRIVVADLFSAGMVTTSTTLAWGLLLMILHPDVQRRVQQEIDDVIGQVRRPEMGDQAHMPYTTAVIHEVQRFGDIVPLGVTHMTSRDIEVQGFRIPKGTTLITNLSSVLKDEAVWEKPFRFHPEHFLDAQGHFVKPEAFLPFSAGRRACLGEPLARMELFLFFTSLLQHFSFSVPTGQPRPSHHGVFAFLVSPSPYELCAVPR
smiles,measurement,setting,value
CCN(CC)C(=O)c1ccc(O)c(OC)c1,AC50,Cytochrome P450 1A2,12.6 µM (inconclusive)
Cc1nc2sccc2c(=O)n1-c1cccc(Cl)c1,AC50,Cytochrome P450 2D6,12.6 µM (inconclusive)
same,AC50,Cytochrome P450 2C9,20 µM (inconclusive)
CC1(C)CC(=O)C2=C(C1)N(c1ccc(F)cc1)C(=O)CC2c1ccccc1 (stereo not given),EC50,[1],> 195 µM (not active)
COc1cc(OC)c(CN2CCCN(C)CC2)cc1Br,IC50,[2],107 µM (active)
Cc1ccc(NC(=O)CNCCCN2CCOCC2)cc1S(=O)(=O)N1CCCCC1,IC50,[2],76.5 µM (active)
COc1nc(Nc2ccc(O)cc2)nc(OC(C(F)(F)F)C(F)(F)F)n1,IC50,[2],35.1 µM (active)
Cn1cc(/C=C(\C#N)C(=O)Nc2cccc([N+](=O)[O-])c2)c2ccccc21,EC50,[1],4.14 µM (active)
O=c1ccc(NS(=O)(=O)c2ccc(Cl)cc2)cn1Cc1ccc(Cl)c(Cl)c1,AC50,Cytochrome P450 1A2,28.2 µM (inconclusive)
S=C(NCCSCc1c(Cl)cccc1Cl)Nc1ccccc1,EC50,[3],> 160 µM (inactive)
same,EC50,[4],2.94 µM (active)
same,EC50,[5],> 60 µM (not active)
same,AC50,Cytochrome P450 2C9,10 µM (inconclusive)
COc1cc(/C=C/C(=O)O)cc(S(=O)(=O)NCCCO)c1OC,AC50,Cytochrome P450 2C9,10 µM (inconclusive)
Cc1ccc(C)c(NC(=O)c2cc([N+](=O)[O-])cc([N+](=O)[O-])c2)c1,IC50,cells,10.1 µM (active)
C=C1SC(Nc2c(C)cc(C)cc2C)=NC12CCCCC2,EC50,[1],> 195 µM (not active)
same,EC50,[4],0.561 µM (active)
same,EC50,[5],> 60 µM (not active)
Cc1cc(=O)oc(C)c1C(=O)NCc1cccnc1,AC50,Cytochrome P450 3A4,25.1 µM (inconclusive)
same,AC50,Cytochrome P450 2C9,3.16 µM (inconclusive)
CCCn1nnnc1-c1cccc(Cl)c1,AC50,Cytochrome P450 2C9,1.26 µM (inconclusive)
Cc1ccc(C(=O)N2N=C(c3ccc(Br)cc3)CC2c2ccccc2O)cc1 (stereo not given),EC50,[4],2.15 µM (active)
same,EC50,[5],13.6 µM (active)
same,AC50,[6],3.63 µM (active)
same,AC50,INS1,7.42 µM (active)
COc1cc(N)ccc1NC(=O)c1cccs1,IC50,[2],106 µM (active)
Cc1cccc(C(=O)O)c1C[C@H]1NCC[C@H]2c3ccccc3N[C@@H]12,AC50,Cytochrome P450 1A2,0.0631 µM (inconclusive)
CCn1nnc(NC(=O)COc2ccc(C3CCCCC3)cc2)n1,IC50,cells,18.4 µM (active)
CC(=O)COc1ccccc1OC(=O)c1ccco1,EC50,[1],> 195 µM (not active)
COc1ccc2nc(NC(=O)CN3CCOCC3)sc2c1,EC50,[1],> 195 µM (not active)
CN(Cc1ccccc1)C(=O)C1CCCN(Cc2ccc(Cl)cc2)C1 (stereo not given),IC50,[2],161 µM (active)
NC(=O)CC(NC(=O)Cc1ccc(Br)cc1)c1ccc(N2CCC(Cc3ccccc3)CC2)c([N+](=O)[O-])c1 (stereo not given),AC50,[6],12.3 µM (active)
OCC#CCSc1nnc(-c2ccc(Br)cc2)o1,IC50,cells,5.2 µM (active)
COc1cccc2cc(C(=O)OC3CCN(C)CC3)c(=O)oc12,EC50,[1],> 195 µM (not active)
Brc1c(-c2ccc3c(c2)OCO3)nc2ncccn12,IC50,cells,4.7 µM (active)
CNc1ncc(C(=O)c2ccccc2)s1,AC50,Cytochrome P450 2C19,2.24 µM (inconclusive)
same,AC50,Cytochrome P450 3A4,28.2 µM (inconclusive)
same,AC50,Cytochrome P450 2C9,7.94 µM (inconclusive)
COc1ccc(CNc2ncc(-c3ccc(F)cc3)n2C)cc1OC,IC50,[2],56.8 µM (active)
C=CCNC(=S)N1CCN(Cc2ccc3c(c2)OCO3)CC1,IC50,[2],158 µM (active)
